This is an account of results in patent US20250179043A1, “PROCESSES FOR THE PREPARATION OF N-(1-METHYLCYCLOPROPYL)-2-(3-PYRIDINYL)-2H-INDAZOLE-4-CARBOXAMIDE AND INTERMEDIATES THEREOF” (FMC CORPORATION, priority 2022, published 2025).

SMILES strings stand for the structures.

A short description of data set [1]: Form A and Form B interconversion (competitive) slurries, final form by XRPD. Type of data set: physicochemical. As for the experimental part:
Relative thermodynamic stabilities of anhydrous/non-solvated Forms A and B were studied at 2-8° C., room temperature (RT) and at 71-72° C. via interconversion (competitive) slurries. In these slurries, a given solvent system was pre-saturated with compound 092 (Form A+minor Form B) at the stated temperature, and a portion of the liquid phase was filtered into a mixture of solids containing relatively equal amounts of Form A and Form B. Interconversion slurries at 2-8° C. and RT were allowed to stir for 22 days, while slurries at 71-72° C. stirred for shorter duration (2-4 days). […] The results are reported in table 13 below where: liquid phase for each slurry was pre-saturated using as-received Form A+minor Form B; solvent ratios are v/v; water activity values were calculated using UNIFAC calculator at RT; and times and temperatures are approximate.

Data set [2] in a line: Stable polymorph form screen (slurry experiments, final form by XRPD). Type of data set: physicochemical. The note with it: for Final form (XRPD Result): start Form A + minor Form B. As for the experimental part:
Slurry experiments were conducted to identify the stable form at various conditions. In these experiments, saturated solutions in various solvents containing excess undissolved solids (starting with Form A+minor Form B) were stirred for extended durations. Slurries at room temperature (RT) and 2-8° C. were typically conducted for approximately 2 weeks, while slurries at 72-73° C. were stirred for a shorter duration (1 day) to minimize the potential for decomposition. […] The results are shown in the table 12 where the time and temperatures are approximate.

Take `CC1(NC(=O)c2cccc3nn(-c4cccnc4)cc23)CC1` [Form A, N-(1-methylcyclopropyl)-2-(3-pyridinyl)-2H-indazole 4-carboxamide]: the “Relative thermodynamic stability of Forms A and B” value in data set [1] (between 2° C. and 72° C., from competitive slurries) is “thermodynamically stable form”. Besides, the “Relative stability of polymorph forms” value in data set [2] (between 2° C. and 73° C., from slurries) is on record as “more stable than Form B”.

Regarding `CC1(NC(=O)c2cccc3nn(-c4cccnc4)cc23)CC1` [Compound 092, N-(1-methylcyclopropyl)-2-(3-pyridinyl)-2H-indazole 4-carboxamide], the “Final form (XRPD Result)” value in data set [2] (slurry in DCM, RT, 13 d) is reported as “Form A”; in data set [2] (slurry in DMF, RT, 13 d), “Form A”; in data set [2] (slurry in EtOH, 72-73° C., 1 d), “Form A”; in data set [2] (slurry in EtOH, RT, 13 d), “Form A”; in data set [2] (slurry in IPA, RT, 13 d), “Form A”; in data set [2] (slurry in MEK, 72-73° C., 1 d), “Form A”. Moreover, the “Final form (XRPD Result)” value is on record as “Form A” in data set [2] (slurry in MEK, RT, 13 d); “Form A” in data set [2] (slurry in MeOH, 2-8° C., 14 d); “Form A” in data set [2] (slurry in MeOH, RT, 13 d); “Form A” in data set [2] (slurry in acetone, RT, 13 d).

`CC1(NC(=O)c2cccc3nn(-c4cccnc4)cc23)CC1` [Form A + Form B, N-(1-methylcyclopropyl)-2-(3-pyridinyl)-2H-indazole 4-carboxamide]: the “Final form (XRPD Result)” value was “Form A” in data set [1] (competitive slurry in EtOH, 71-72° C., 2 d); “Form A” in data set [1] (competitive slurry in EtOH, RT, 22 d); “Form A” in data set [1] (competitive slurry in NMP/water 80:20 (aw 0.39), 2-8° C., 22 d); “Form A” in data set [1] (competitive slurry in NMP/water 80:20 (aw 0.39), 71-72° C., 2 d); “Form A” in data set [1] (competitive slurry in NMP/water 80:20 (aw 0.39), RT, 22 d).
